Our source for the inhibition values is article PMC7180948, “New Insights into 4-Anilinoquinazolines as Inhibitors of Cardiac Troponin I–Interacting Kinase (TNNi3K)” (Molecules, 2020).

What all share (assay): biochemical
Design in all cases: KINOMEscan competition binding panel (Eurofins DiscoverX), single concentration, percent inhibition
Holding throughout (settings): read-out: 15 at 1 µM % inhibition

One assay has as its target DDR1 (Homo sapiens, UniProt Q08345). Put shortly:
(§1)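 Selectivity profile from a KINOMEscan run against >400 human kinases; test concentration 1 µM.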

The next assay has as its target T1, S6K1 (Homo sapiens, UniProt P23443).
T1 construct: gene RPS6KB1
Put shortly:
as §1

A further assay has as its target NEK3 (Homo sapiens, UniProt P51956). Summed up:
as §1

A further assay concerns the target DAPK2 (Homo sapiens, UniProt Q9UIK4). Summed up:
as §1

In a further assay the target is T2, YANK2 (Homo sapiens, UniProt Q9NY57).
T2 construct: gene STK32B
Summed up: as §1

The target in a further assay is EPHA4 (Homo sapiens, UniProt P54764). Summed up: as §1
The target in a further assay is PIK3CA(C420R) (Homo sapiens, UniProt P42336, C420R). Put shortly:
as §1

The next assay concerns the target CSNK2A2 (Homo sapiens, UniProt P19784). Put shortly:
as §1

For another assay, the target named is T3, PCTK2 (Homo sapiens, UniProt Q00537).
T3 construct: gene CDK17
T3 sequence (Q00537 whole entry): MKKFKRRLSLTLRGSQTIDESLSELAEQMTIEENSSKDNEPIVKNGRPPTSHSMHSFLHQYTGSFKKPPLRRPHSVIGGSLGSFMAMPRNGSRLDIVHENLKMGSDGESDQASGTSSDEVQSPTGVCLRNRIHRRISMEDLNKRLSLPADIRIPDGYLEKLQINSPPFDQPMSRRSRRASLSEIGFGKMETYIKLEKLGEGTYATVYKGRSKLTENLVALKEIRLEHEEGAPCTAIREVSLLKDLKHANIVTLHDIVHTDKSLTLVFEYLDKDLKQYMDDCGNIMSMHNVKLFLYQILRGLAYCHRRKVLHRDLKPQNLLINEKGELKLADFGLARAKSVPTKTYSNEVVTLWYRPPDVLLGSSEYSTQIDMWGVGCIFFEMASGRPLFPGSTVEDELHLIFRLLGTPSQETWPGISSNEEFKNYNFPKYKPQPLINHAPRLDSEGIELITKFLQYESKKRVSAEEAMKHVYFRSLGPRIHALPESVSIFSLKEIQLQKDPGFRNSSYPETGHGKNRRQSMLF
Summed up: as §1

The next assay has as its target T4, MLK1 (Homo sapiens, UniProt P80192).
T4 construct: gene MAP3K9
Put shortly:
as §1

A further assay has as its target HCK (Homo sapiens, UniProt P08631). Put shortly: as §1
A further assay deals with T5, LKB1 (Homo sapiens, UniProt Q15831).
T5 construct: gene STK11
T5 sequence (Q15831 whole entry): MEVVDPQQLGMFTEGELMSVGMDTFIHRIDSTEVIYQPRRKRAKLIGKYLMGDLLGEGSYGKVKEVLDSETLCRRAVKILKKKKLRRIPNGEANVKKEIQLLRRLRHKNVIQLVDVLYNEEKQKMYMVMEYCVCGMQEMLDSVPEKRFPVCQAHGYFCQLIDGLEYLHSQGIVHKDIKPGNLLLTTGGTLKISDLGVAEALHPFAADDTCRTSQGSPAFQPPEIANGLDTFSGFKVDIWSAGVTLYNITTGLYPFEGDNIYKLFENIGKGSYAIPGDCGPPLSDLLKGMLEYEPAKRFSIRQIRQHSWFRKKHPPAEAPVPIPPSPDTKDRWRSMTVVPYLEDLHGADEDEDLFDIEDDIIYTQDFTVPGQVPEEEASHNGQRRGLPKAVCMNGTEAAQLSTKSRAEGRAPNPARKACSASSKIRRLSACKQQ
Summed up:
as §1

The target in the next assay is MARK2 (Homo sapiens, UniProt Q7KZI7). Summed up:
as §1

The target of a further assay is EPHB1 (Homo sapiens, UniProt P54762). Summed up: as §1
Another assay concerns the target BUB1 (Homo sapiens, UniProt O43683). Summed up:
as §1

A further assay concerns the target LYN (Homo sapiens, UniProt P07948). Put shortly: as §1
A further assay has as its target FLT3(D835V) (Homo sapiens, UniProt P36888, D835V). Put shortly:
as §1

Another assay has as its target LIMK2 (Homo sapiens, UniProt P53671). Summed up:
as §1

Assay [1] concerns the target T6, RSK3(Kin.Dom.2-C-terminal) (Homo sapiens, UniProt Q15349).
T6 construct: gene RPS6KA2; Kin.Dom.2-C-terminal
Summed up: as §1

The target in a further assay is PDGFRB (Homo sapiens, UniProt P09619). Put shortly: as §1
In another assay the target is EPHA1 (Homo sapiens, UniProt P21709). Put shortly:
as §1

The next assay deals with TYRO3 (Homo sapiens, UniProt Q06418). Summed up:
as §1

The target of another assay is RIPK2 (Homo sapiens, UniProt O43353). Summed up:
as §1

Assay [2] addresses T7, TYK2(JH2domain-pseudokinase) (Homo sapiens, UniProt P29597).
T7 construct: JH2domain-pseudokinase
Summed up: as §1

Sequence of RIPK2 (O43353 whole entry): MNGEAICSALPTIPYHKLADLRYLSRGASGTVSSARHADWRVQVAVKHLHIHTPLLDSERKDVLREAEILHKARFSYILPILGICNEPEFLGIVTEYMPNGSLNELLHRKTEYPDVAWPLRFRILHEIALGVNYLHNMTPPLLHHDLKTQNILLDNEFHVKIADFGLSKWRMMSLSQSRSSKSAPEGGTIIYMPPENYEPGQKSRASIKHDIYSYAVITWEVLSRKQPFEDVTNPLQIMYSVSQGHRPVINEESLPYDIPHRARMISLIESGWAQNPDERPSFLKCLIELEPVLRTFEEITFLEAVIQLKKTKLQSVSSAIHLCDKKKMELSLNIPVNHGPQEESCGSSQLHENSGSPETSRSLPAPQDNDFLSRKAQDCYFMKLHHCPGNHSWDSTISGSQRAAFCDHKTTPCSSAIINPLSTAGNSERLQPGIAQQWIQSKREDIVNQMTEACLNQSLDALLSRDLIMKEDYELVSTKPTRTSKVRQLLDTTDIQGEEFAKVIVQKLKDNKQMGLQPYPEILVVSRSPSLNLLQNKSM
Sequence of CSNK2A2 (P19784 whole entry): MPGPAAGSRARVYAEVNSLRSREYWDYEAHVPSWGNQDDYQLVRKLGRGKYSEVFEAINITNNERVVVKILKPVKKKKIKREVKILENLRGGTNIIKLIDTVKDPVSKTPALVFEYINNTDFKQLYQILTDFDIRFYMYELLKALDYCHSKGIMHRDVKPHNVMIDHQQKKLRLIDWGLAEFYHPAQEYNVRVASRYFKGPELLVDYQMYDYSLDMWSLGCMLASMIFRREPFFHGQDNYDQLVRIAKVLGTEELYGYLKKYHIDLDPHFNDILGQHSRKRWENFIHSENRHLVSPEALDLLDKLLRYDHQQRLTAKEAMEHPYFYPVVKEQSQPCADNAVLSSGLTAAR
Sequence of HCK (P08631 whole entry): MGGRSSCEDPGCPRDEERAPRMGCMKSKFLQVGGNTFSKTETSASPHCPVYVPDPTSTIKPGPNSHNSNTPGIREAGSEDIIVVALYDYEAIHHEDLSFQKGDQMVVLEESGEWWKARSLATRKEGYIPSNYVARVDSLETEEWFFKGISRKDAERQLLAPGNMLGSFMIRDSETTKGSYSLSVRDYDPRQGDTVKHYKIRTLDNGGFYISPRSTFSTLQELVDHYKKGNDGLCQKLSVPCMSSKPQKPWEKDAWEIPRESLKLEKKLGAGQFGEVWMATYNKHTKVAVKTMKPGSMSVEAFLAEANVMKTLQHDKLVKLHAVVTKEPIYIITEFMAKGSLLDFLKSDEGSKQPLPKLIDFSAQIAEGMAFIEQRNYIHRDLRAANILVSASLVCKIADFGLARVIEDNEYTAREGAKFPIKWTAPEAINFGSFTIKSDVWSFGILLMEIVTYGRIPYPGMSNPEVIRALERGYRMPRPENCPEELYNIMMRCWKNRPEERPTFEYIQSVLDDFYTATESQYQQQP
T7 sequence (P29597 whole entry): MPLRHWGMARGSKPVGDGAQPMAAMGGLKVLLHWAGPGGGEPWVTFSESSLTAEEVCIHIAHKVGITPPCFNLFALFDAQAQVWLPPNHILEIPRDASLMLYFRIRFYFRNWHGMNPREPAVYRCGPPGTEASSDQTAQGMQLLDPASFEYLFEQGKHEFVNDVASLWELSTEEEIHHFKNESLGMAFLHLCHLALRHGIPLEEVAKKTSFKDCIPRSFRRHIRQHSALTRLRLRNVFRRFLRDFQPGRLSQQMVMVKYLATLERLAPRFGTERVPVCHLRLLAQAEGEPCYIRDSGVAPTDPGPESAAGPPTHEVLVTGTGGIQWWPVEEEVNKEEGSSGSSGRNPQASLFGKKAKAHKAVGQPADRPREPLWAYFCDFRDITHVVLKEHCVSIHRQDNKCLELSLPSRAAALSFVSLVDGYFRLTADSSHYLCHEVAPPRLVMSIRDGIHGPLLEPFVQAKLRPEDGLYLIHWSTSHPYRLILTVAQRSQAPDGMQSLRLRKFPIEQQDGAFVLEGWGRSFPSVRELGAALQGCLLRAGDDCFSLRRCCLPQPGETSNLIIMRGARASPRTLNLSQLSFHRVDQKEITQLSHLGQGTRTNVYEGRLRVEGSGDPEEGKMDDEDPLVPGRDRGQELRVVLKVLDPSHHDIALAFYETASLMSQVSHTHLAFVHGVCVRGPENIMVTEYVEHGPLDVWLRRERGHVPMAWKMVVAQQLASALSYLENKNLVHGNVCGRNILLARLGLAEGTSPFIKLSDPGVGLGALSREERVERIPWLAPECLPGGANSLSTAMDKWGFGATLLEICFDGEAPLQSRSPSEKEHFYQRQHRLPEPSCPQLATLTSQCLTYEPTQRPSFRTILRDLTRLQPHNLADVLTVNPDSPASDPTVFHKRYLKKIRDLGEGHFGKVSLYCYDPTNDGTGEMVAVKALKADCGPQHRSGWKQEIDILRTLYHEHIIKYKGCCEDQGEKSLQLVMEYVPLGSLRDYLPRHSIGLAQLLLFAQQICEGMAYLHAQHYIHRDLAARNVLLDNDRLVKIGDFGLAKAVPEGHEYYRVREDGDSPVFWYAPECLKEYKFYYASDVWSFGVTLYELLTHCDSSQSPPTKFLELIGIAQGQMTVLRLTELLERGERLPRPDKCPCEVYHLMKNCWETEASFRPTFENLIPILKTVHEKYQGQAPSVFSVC
Sequence of BUB1 (O43683 whole entry): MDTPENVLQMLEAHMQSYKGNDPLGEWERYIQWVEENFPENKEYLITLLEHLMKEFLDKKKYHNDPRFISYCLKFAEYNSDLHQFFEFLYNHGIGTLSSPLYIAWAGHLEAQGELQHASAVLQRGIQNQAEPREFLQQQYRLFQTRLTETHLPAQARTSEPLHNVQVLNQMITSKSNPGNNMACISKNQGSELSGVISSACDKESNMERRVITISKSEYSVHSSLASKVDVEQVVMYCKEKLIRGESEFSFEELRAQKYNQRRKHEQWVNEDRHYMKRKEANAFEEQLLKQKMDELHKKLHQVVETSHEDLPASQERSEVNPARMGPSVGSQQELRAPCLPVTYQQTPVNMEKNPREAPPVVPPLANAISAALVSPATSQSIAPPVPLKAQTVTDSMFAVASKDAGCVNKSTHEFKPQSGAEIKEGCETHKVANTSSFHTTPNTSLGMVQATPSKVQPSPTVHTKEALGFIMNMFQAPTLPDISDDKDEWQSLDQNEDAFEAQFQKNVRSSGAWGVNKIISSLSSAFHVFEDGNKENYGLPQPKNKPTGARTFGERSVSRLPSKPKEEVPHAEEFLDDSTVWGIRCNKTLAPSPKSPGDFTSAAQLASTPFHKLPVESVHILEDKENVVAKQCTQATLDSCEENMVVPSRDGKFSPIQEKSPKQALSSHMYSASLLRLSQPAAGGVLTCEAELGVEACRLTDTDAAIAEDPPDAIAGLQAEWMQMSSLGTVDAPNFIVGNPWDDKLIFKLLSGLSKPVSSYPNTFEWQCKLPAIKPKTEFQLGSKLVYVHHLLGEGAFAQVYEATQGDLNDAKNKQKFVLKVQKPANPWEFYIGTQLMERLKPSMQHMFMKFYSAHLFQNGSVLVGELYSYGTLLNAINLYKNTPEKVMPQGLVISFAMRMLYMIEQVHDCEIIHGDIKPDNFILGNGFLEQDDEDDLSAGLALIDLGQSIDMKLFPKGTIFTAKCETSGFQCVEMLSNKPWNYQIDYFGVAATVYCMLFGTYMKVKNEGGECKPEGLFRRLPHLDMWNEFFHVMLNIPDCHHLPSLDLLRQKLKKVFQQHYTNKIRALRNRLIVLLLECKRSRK
Sequence of DAPK2 (Q9UIK4 whole entry): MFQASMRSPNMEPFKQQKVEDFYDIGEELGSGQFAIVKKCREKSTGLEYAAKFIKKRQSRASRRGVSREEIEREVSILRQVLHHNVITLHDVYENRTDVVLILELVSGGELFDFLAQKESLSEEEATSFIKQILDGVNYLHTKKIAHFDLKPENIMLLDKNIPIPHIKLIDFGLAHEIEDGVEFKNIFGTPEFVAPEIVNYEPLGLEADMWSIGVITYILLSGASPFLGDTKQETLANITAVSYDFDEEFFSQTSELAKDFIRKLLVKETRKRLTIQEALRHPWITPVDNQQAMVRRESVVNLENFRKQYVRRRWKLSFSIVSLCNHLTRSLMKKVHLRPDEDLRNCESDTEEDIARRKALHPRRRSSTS

For `CNS(=O)(=O)c1ccc(N(C)C)c(Nc2nc(C)nc3cc(OC)c(OC)cc23)c1` [compound 15, 3-((6,7-dimethoxy-2-methylquinazolin-4-yl)amino)-4-(dimethylamino)-N-methylbenzenesulfonamide], the inhibition at 1 µM is 0% on DDR1; 20% on S6K1; 0% at NEK3; 0% at DAPK2; 0% on YANK2; 0% at EPHA4. In addition, the inhibition at 1 µM is 11% on PIK3CA(C420R); 14% on CSNK2A2; 0% on PCTK2; 0% at MLK1; 4% at HCK; 0% at LKB1. In addition, the inhibition at 1 µM at MARK2 came out at 0%; on EPHB1, 0%; on BUB1 it was 7%; at LYN, 0%; on FLT3(D835V) it was 37%; at LIMK2, 9%. In addition, the inhibition at 1 µM in [1] is 0%; at PDGFRB, 10%; on EPHA1, 0%; on TYRO3, 0%; at RIPK2, 4%; in assay [2] it was 0%.
